The subject of experiment [1] is TRE DNA. The experiment can be described thus: CD control, interaction with TRE DNA. The settings on record: peptide 50 µM, TRE DNA 5 µM, CD spectra 260-320 nm. Format: binding. Here is the method:
(§1) µM) alongside ampicillin, kanamycin and chloramphenicol to maintain the required plasmids, and IPTG (1 mM) to induce protein expression. The library transformants were […]
however a lower stringency is used initially before selection is increased in later steps.
Colonies from this first round of selection were pooled and serially grown in liquid culture at starting OD600 of 0.05 and grown at 37°C with shaking at 200 rpm until the OD600 […]
increased to the optimum 4 µM in subsequent passages. Bacteria containing the most effective functional antagonists were expected to produce higher levels of TRE-mDHFR which provides a growth advantage, and these will dominate the culture. At each passage step, a sample of the culture was plated on LB agar (supplemented with antibiotics to maintain plasmids) to select and sequence individual colonies, and a DNA pool was also sequenced. This allows the occurrence of library members to be monitored as winner sequences are selected for. Assay Validation experiments utilised a modified assay methodology whereby overnight cultures from glycerol stocks of the Control Strains (Figure S6) were diluted to OD600=0.5 and 50 µL was plated on a selective M9 minimal […]
Circular Dichroism (CD): An Applied Photophysics Chirascan was used for CD measurements, with a 200 µL sample in a 1 mm path length CD cell. […]

The target in experiment [2] is T1, cJun/TRE DNA interaction (Homo sapiens, UniProt P05412).
T1 construct: The human cJun bZIP domain spans from Arg252 to Leu308; His-SUMO (N, cleaved yes); AS cap (two residues Ala-Ser) (N); GAP cap (three residues Gly-Ala-Pro) (C); made in house; host or cells: E. coli (pET21-His-SUMO plasmid)
T1 sequence (P05412 252-308): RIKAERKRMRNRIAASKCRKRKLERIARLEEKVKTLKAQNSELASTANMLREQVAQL
The experiment can be described thus: CD TRE DNA peak shift, antagonism of cJun/TRE DNA interaction. The format is biochemical. The conditions noted are these: cJun 20 μM, TRE DNA 5 μM, DNA peak ~281 nm, Hill equation; three independent experiments, one SD; pH 7.4. How it is done:
The binding of cJun to TRE DNA can be observed by monitoring a DNA absorbance peak in the CD spectrum centered at ∼281 nm.[44] […] The addition of cJun (20 μM) to TRE DNA (5 μM) decreases this DNA peak by 55% as the cJun engages its target TRE site and alters the DNA structure (Figure 6A). Subsequent titration of HingeW into this bound cJun/TRE DNA mixture reverses the peak shift, with the peak increasing as DNA is released.
Figure 6 HingeW antagonizes cJun/TRE DNA interaction more effectively than A-FosW. (A) CD spectra showing a shift in the TRE DNA peak at ∼281 nm upon addition of cJun, which is reversed by the titration of HingeW into the sample, as HingeW sequesters the cJun in a nonfunctional heterodimer. […] EMSA showing the (C) unbound TRE DNA band shift upon addition of cJun and the subsequent restoration of the unbound DNA band intensity upon titration of either (D) HingeW or (E) A-FosW. (F). For both CD and EMSA, data was averaged from three independent experiments and the plotted error bars indicate one standard deviation. […]
as §1
(§2) increased to the optimum 4 µM in subsequent passages. […] This allows the occurrence of library members to be monitored as winner sequences are selected for. […]

Experiment [3] concerns cJun bZIP. Description: CD spectroscopy, binding to cJun bZIP (helicity of heterodimer). Further details: species or system human. The settings on record: 20 °C, total peptide 10 μM equimolar, pH 7.4.
Text: Experiments were next undertaken to compare the binding of A-FosW and TBS-optimized HingeW to the cJun bZIP. CD spectroscopy was utilized to measure the global secondary structure of homo- and heterodimeric peptide samples, providing information on global α-helicity and thermal denaturation temperatures (Tm). The HingeW/cJun spectrum was 82% higher in α-helical content relative to the average of the two-component spectra (Figure 5A). […] This occurs as the total peptide concentration of the sample is kept constant (10 μM), meaning that the concentration of each component is halved upon mixing. If a sample component structure is unchanged upon mixing (i.e., no binding occurs), the CD signal for each component will average. The same, though smaller, trend was observed from the A-FosW/cJun spectra, where the α-helicity was 39% greater than the average (Figure 5B). This increased α-helical gain upon binding of HingeW/cJun implies a higher affinity interaction. Of note is that HingeW in isolation is 12.9% less helical relative to A-FosW. The AGADIR helical propensity calculator was used to calculate predicted helicity scores of 14.5 and 13.2 for A-FosW and HingeW, respectively.[42] […]
as §2

One may read the IC50 as the concentration at which inhibition is half-maximal. “LEQRAEELARENEELEKEAEELEQELDELQAEIEQLEERNYALRKEIEDLQKQLEKL [A-FosW, N-terminal AS and C-terminal GAP caps, 6xHis-tagged]”: the “interaction with TRE DNA” value in experiment [1] is “no interaction with DNA”. Moreover, in experiment [2], the IC50 is 16 ± 0.4 µM. Besides, the “increase in α-helical content of heterodimer with cJun relative to average of component spectra” value in experiment [3] (150 mM potassium phosphate, 150 mM KF, 5 mM TCEP) is 39%. Also, the “Fraction helicity of heterodimer with cJun” value in experiment [3] amounted to 38.7%.
